Assay [1] has as its target T1, human VR1 (Homo sapiens, UniProt Q8NER1).
T1 construct: expressed in transfected cells
Put plainly: VR1 pH-based assay (FLIPR calcium influx). The assay is classed as cell-based. Particulars: HEK293-EcR cells induced to express human VR1; activation by agonist buffer pH 5.5; Fluo-4, FLIPR. How it is done: (§1) Human VR1 cloning. Human spinal cord RNA (commercially available from Clontech, Palo Alto, Calif.) was used. Reverse transcription was conducted on 1.0 μg total RNA using Thermoscript Reverse Transcriptase (commercially available from Invitrogen, Carlsbad, Calif.) and oligo dT primers as detailed in its product description. Reverse transcription reactions were incubated at 55° C. for 1 h, heat-inactivated at 85° C. for 5 min, and RNase H-treated at 37° C. for 20 min.
(§2) Human VR1 cDNA sequence was obtained by comparison of the human genomic sequence, prior to annotation, to the published rat sequence. Intron sequences were removed and flanking exonic sequences were joined to generate the hypothetical human cDNA. Primers flanking the coding region of human VR1 were designed as follows: forward primer, […] (SEO ID NO: 1); and reverse primer, […] (SEO ID NO: 2). […]
(§3) Generation of inducible cell lines. […] On the day of assay, cells were loaded with Fluo-4 (a calcium-sensitive dye that is commercially available from Molecular Probes, Eugene, Oreg.) and CAP-mediated calcium influx was measured using a Fluorometric Imaging Plate Reader (“FLIPR”) (commercially available from Molecular Devices Corp., Sunnyvale, Calif.) as described below. […]

Assay [2] addresses T1, human VR1. Nature of the assay: VR1 capsaicin-based assay (FLIPR calcium influx). Particulars: HEK293-EcR cells induced to express human VR1; activation by capsaicin (400 nM); Fluo-4, FLIPR. The assay is classed as cell-based. The method, then: as §1, §2, §3

T1 sequence (Q8NER1 whole entry): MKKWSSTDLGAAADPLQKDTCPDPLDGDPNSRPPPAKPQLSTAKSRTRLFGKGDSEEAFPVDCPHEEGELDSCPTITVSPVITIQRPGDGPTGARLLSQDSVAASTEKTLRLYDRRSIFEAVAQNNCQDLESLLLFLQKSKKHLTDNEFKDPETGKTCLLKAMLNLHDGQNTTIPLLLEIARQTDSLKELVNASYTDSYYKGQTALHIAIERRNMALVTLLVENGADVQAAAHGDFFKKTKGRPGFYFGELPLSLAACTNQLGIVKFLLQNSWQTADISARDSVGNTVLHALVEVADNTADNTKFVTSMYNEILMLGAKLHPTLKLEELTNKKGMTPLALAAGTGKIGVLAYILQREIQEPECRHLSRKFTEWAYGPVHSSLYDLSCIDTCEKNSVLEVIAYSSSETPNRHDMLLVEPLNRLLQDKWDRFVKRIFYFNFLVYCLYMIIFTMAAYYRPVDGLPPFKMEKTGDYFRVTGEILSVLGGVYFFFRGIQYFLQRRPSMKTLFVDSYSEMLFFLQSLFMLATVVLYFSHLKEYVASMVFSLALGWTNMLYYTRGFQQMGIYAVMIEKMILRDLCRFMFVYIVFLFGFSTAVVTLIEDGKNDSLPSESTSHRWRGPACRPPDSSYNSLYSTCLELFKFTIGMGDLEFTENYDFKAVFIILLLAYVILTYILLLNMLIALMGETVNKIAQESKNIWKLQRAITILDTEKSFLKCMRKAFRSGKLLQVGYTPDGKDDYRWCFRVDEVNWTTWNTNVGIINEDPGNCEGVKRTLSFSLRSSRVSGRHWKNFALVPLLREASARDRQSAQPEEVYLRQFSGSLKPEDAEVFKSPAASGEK

For `Cc1ccnnc1N1CCN(C(=O)Nc2ccc(C(C)(C)C)cc2)CC1` [Compound A17, 4-(4-Methyl-pyridazin-3-yl)-piperazine-1-carboxylic acid (4-tert-butyl-phenyl)-amide], the figures for the half-inhibitory concentration (IC50) at human VR1 [1] and at human VR1 [2] were 221 ± 50.5 nM and 47.2 ± 9.9 nM, respectively.
